Where a name gives a salt, the structure may show the parent alone. Read-outs that look alike come from different tables or passages of the source.
How the values were obtained:
[1] = system: parental wild-type Ba/F3 cells; test: Ba/F3 (WT) cell proliferation assay (Alamar Blue); format: cell-based; conditions: Mus musculus
[2] = system: LP-1 cell line (FGF-1/Heparin induced pERK); test: Cell-based pERK ELISA, LP-1 cells; conditions: Homo sapiens; for IC50: LP-1, read-out: LP-1 pERK ELISA (μM)
[3] = BaF3, read-out: BaF3 WT prolif, % inhibition
[4] = BaF3, 72 hours, Alamar Blue, read-out: BaF3 WT prolif
[5] = LP-1, read-out: LP-1 pERK ELISA, % inhibition
[6] = BaF3, 72 h, read-out: BaF3 WT prolif (μM)

Structure (SMILES) | IC50 [2] | IC50 [1, 4] | also measured
CCNC(=O)Nc1cccc(-c2cnc3cc(-c4ncccn4)ccn23)c1 [Compound 280] | 0.35 µM |  | inhibition at 3 µM [1, 3]: 74%
COCCc1nnc(-c2ccn3c(-c4cccc(NC(=O)NCC(F)(F)F)c4)cnc3c2)s1 [Compound 319] | 0.012 µM | 0.15 µM | 
Cn1cncc1C#Cc1ccn2c(-c3cc(NC(=O)NCC(F)(F)F)ccc3F)cnc2c1 [Compound 327] | 0.31 µM |  | inhibition at 10 µM [1, 3]: 30%
Cn1cncc1C#Cc1ccn2c(-c3cccc(NC(=O)NC4CC4)c3)cnc2c1 [Compound 329] | 0.23 µM |  | inhibition at 10 µM [1, 3]: 31%
COc1ccnc(-c2ccn3c(-c4cccc(NC(=O)NCC(F)(F)F)c4)cnc3c2)n1 [Compound 336] | 0.074 µM | 0.46 µM | 
NC(=O)Nc1cccc(-c2cnc3cc(-c4ncccn4)ccn23)c1 [Compound 337] | 1.5 µM |  | inhibition at 10 µM [1, 3]: 23%
O=C(NCC(F)(F)F)Nc1cccc(-c2cnc3cc(-c4nnc(C5CCCO5)s4)ccn23)c1 (centres unmarked) [Example 1, 1-(3-{7-[5-(Tetrahydrofuran-2-yl)-[1,3,4]thiadiazol-2-yl]imidazo[1,2-a]pyridin-3-yl}-phenyl)-3-(2,2,2-trifluoroethyl)urea] | 0.0074 µM | 0.92 µM | 
CCOC(=O)C(C)(C)n1cc(-c2ccn3c(-c4cccc(NC(=O)NCC(F)(F)F)c4)cnc3c2)cn1 [Example 2, 2-Methyl-2-[4-(3-{3-[3-(2,2,2-trifluoroethyl)ureido]phenyl}imidazo [1,2-a]pyridin-7-yl)pyrazol-1-yl] propionic acid ethyl ester] |  |  | inhibition at 10 µM [1, 3]: 12%; inhibition at 0.003 µM [2, 5]: 62%
O=C(NCC(F)(F)F)Nc1cccc(-c2cnc3cc(-c4ccccn4)ccn23)c1 [Example 3, 1-[3-(7-Pyridin-2-ylimidazo[1,2-a]pyridinyl)phenyl]-3-(2,2,2-trifluoroethyl)urea] | 0.0088 µM | 0.16 µM | 
O=C(NCC(F)(F)F)Nc1cccc(-c2cnc3cc(-c4cnn(C5CCNCC5)c4)ccn23)c1 [Example 4, 1-{3-[7-(1-Piperidin-4-yl-1H-pyrazol-4-yl)-imidazo[1,2-a]pyridin-3-yl]phenyl}-3-(2,2,2-trifluoroethyl)urea hydrochloride] | 0.077 µM |  | inhibition at 10 µM [1, 3]: 51%
CC(C)(C(=O)O)n1cc(-c2ccn3c(-c4cccc(NC(=O)NCC(F)(F)F)c4)cnc3c2)cn1 [Example 5, 2-Methyl-2-[4-(3-{3-[3-(2,2,2-trifluoroethyl)ureido]phenyl}imidazo [1,2-a]pyridin-7-yl)pyrazol-1-yl]propionic acid] |  |  | inhibition at 10 µM [1, 3]: 0%; inhibition at 1 µM [2, 5]: 45%
CN1CCC(n2cc(-c3ccn4c(-c5cccc(NC(=O)NCC(F)(F)F)c5)cnc4c3)cn2)CC1 [Example 6, 1-(3-{7-[1-(1-Methyl-piperidin-4-yl)-1H-pyrazol-4-yl]imidazo[1,2-a]pyridin-3-yl}phenyl)-3-(2,2,2-trifluoroethyl)urea] | 0.0092 µM | 0.87 µM | 
O=C(NCC(F)(F)F)Nc1cccc(-c2cnc3cc(-c4ccc(N5CCCCC5)nn4)ccn23)c1 [Example 7, 1-{3-[7-(6-Piperidin-1-yl-pyridazin-3-yl)-imidazo[1,2-a]pyridin-3-yl]phenyl}-3-(2,2,2-trifluoroethyl)urea] | 0.0063 µM | 0.86 µM | 
O=C(NCC(F)(F)F)Nc1cccc(-c2cnc3cc(-c4nc5c(s4)CCC5)ccn23)c1 [Example 8, 1-{3-[7-(5,6-Dihydro-4H-cyclopentathiazol-2-yl)imidazo[1,2-a]pyridin-3-yl]-phenyl}-3-(2,2,2-trifluoroethyl)urea] | 0.012 µM | 0.45 µM | 
O=C(NCC(F)(F)F)Nc1cccc(-c2cnc3cc(C#Cc4cccnc4)ccn23)c1 [Example 11, 1-[3-(7-Pyridin-3-ylethynylimidazo[1,2-a]pyridin-3-yl)phenyl]-3-(2,2,2-trifluoroethyl)urea] | 0.032 µM |  | 
CN1CCN(c2ccc(-c3ccn4c(-c5cccc(NC(=O)NCC(F)(F)F)c5)cnc4c3)nn2)CC1 [Example 12, 1-(3-{7-[6-(4-Methylpiperazin-1-yl)pyridazin-3-yl]imidazo[1,2-a]pyridin-3-yl}phenyl)-3-(2,2,2-trifluoroethyl)urea] | 0.041 µM | 3.7 µM | 
Cn1cncc1C#Cc1ccn2c(-c3cccc(NC(=O)NCC(F)(F)F)c3)cnc2c1 [Example 13B, 1-{3-[7-(3-Methyl-3H-imidazol-4-ylethynyl)-imidazo[1,2-a]pyridin-3-yl]-phenyl}-3-(2,2,2-trifluoro-ethyl)-urea dihydrochloride] | 0.031 µM |  | inhibition at 10 µM [1, 3]: 44%
CN(C)CC#Cc1ccn2c(-c3cccc(NC(=O)NCC(F)(F)F)c3)cnc2c1 [Example 14, 1-{3-[7-(3-Dimethylaminoprop-1-ynyl)imidazo[1,2-a]pyridin-3-yl]phenyl}-3-(2,2,2-trifluoroethyl)urea] | 0.1 µM | 1.4 µM | 
O=C(NCC(F)(F)F)Nc1cccc(-c2cnc3cc(C#Cc4ccsc4)ccn23)c1 [Example 16, 1-[3-(7-Thiophen-3-ylethynylimidazo[1,2-a]pyridinyl)phenyl]-3-(2,2,2-trifluoroethyl)urea] | 0.11 µM | 0.83 µM | 

Structure (SMILES) | IC50 [2] | IC50 [1, 4] | also measured
O=C(NCC(F)(F)F)Nc1cccc(-c2cnc3cc(-c4nnc(C(F)(F)F)s4)ccn23)c1 [Example 17, 1-(2,2,2-Trifluoroethyl)-3-{3-[7-(5-trifluoromethyl[1,3,4]thiadiazol-2-yl)-imidazo[1,2-a]pyridin-3-yl]phenyl}urea] | 0.044 µM | 0.056 µM | 
CC(O)C#Cc1ccn2c(-c3cccc(NC(=O)NCC(F)(F)F)c3)cnc2c1 (centres unmarked) [Example 18, 1-{3-[7-(3-Hydroxybut-1-ynyl)imidazo[1,2-a]pyridin-3-yl]phenyl}-3-(2,2,2-trifluoroethyl)urea formate] | 0.095 µM |  | IC50 [1, 6]: 1.4 µM
O=C(NCC(F)(F)F)Nc1cccc(-c2cnc3cc(C#CCCO)ccn23)c1 [Example 19, 1-{3-[7-(4-Hydroxybut-1-ynyl)imidazo[1,2-a]pyridin-3-yl]phenyl}-3-(2,2,2-trifluoroethyl)urea] | 0.13 µM | 0.55 µM | 
O=C(NCC(F)(F)F)Nc1cncc(-c2cnc3cc(-c4cccnn4)ccn23)c1 [Example 20, 1-[5-(7-Pyridazin-3-ylimidazo[1,2-a]pyridin-3-yl)pyridin-3-yl]-3-(2,2,2-trifluoroethyl)urea] | 1.1 µM |  | 
Cc1ccc(-c2ccn3c(-c4cncc(NC(=O)NCC(F)(F)F)c4)cnc3c2)nn1 [Example 21, 1-{5-[7-(6-Methylpyridazin-yl)imidazo[1,2-a]pyridin-3-yl]pyridin-3-yl}-3-(2,2,2-trifluoroethyl)urea] | 0.41 µM |  | inhibition at 10 µM [1, 3]: 0%
O=C(NCC(F)(F)F)Nc1cccc(-c2cnc3cc(-c4nnc(CCN5CCCCC5)s4)ccn23)c1 [Example 22, 1-(3-{7-[5-(2-Piperidin-1-ylethyl)-[1,3,4]thiadiazol-2-yl]imidazo[1,2-a]pyridin-3-yl}phenyl)-3-(2,2,2-trifluoroethyl)urea hydrochloride] | 0.0044 µM |  | IC50 [1, 6]: 1.1 µM
O=C(NCC(F)(F)F)Nc1cncc(-c2cnc3cc(-c4nncs4)ccn23)c1 [Example 24, 1-[5-(7-[1,3,4]Thiadiazol-2-ylimidazo[1,2-a]pyridin-3-yl)pyridin-3-yl]-3-(2,2,2-trifluoroethyl)urea hydrochloride] | 0.57 µM |  | inhibition at 10 µM [1, 3]: 2.2%
O=C(NCC(F)(F)F)Nc1cccc(-c2cnc3cc(C#CCO)ccn23)c1 [Example 26, 1-{3-[7-(3-Hydroxyprop-1-ynyl)imidazo[1,2-a]pyridin-3-yl]phenyl}-3-(2,2,2-trifluoroethyl)urea] | 0.27 µM | 0.77 µM | 
Cc1cc(=O)n2nc(-c3ccn4c(-c5cccc(NC(=O)NCC(F)(F)F)c5)cnc4c3)sc2n1 [Example 27, 1-{3-[7-(7-Methyl-5-oxo-5H-[1,3,4]thiadiazolo[3,2-a]pyrimidin-2-yl)imidazo[1,2-a]pyridin-3-yl]phenyl}-3-(2,2,2-trifluoroethyl)urea] | 0.52 µM |  | 
Cn1cc(-c2ccn3c(-c4cccc(NC(=O)NCC(F)(F)F)c4)cnc3c2)c(CN)n1 [Example 57, 1-{3-[7-(3-Aminomethyl-1-methyl-1H-pyrazol-4-yl)-imidazo[1,2-a]pyridin-3-yl]-phenyl}-3-(2,2,2-trifluoro-ethyl)-urea] |  |  | inhibition at 3 µM [2, 5]: 40%
O=C(NCC(F)(F)F)Nc1cccc(-c2cnc3cc(-c4ccc(N5CCC5)nn4)ccn23)c1 [Example 82, 1-{3-[7-(6-Azetidin-1-yl-pyridazin-3-yl)-imidazo[1,2-a]pyridin-3-yl]-phenyl}-3-(2,2,2-trifluoro-ethyl)-urea hydrochloride] | 0.0067 µM |  | 
O=C(NCC(F)(F)F)Nc1cccc(-c2cnc3cc(-c4ccncc4)ccn23)c1 [Example 83, 1-[3-(7-Pyridin-4-yl-imidazo[1,2-a]pyridin-3-yl)-phenyl]-3-(2,2,2-trifluoro-ethyl)-urea] | 0.012 µM |  | 
Nc1ccn2c(-c3cccc(NC(=O)NCC(F)(F)F)c3)cnc2c1 [Example 115, 1-[3-(7-Aminoimidazol[1,2-a]pyridin-3-yl)phenyl]-3-(2,2,2-trifluoroethyl)urea] |  |  | inhibition at 10 µM [2, 5]: 0%
Cc1nccn1-c1ccn2c(-c3cccc(NC(=O)NCC(F)(F)F)c3)cnc2c1 [Example 116, 1-{3-[7-(2-Methylimidazol-1-yl)-1,7-dihydroimidazol[1,2-a]pyridin-3-yl]-phenyl}-3-(2,2,2-trifluoroethyl)urea] | 1.9 µM |  | 
O=C(NCC(F)(F)F)Nc1cccc(-c2cnc3cc(-c4nnc(CCN5CCCC5)s4)ccn23)c1 [Example 241] |  |  | inhibition at 10 µM [1, 3]: 4.2%
CC(C)c1cnc(N)nc1-c1ccn2c(-c3cccc(NC(=O)NCC(F)(F)F)c3)cnc2c1 [Example 242] |  | 1.7 µM | 
O=C(NCC(F)(F)F)Nc1cccc(-c2cnc3cc(-c4ncc(C(F)(F)F)cn4)ccn23)c1 [Example 244] |  |  | inhibition at 3 µM [1, 3]: 17%
Cc1cn2nc(-c3ccn4c(-c5cc(NC(=O)NCC(F)(F)F)cc(OC(C)C)c5)cnc4c3)sc2n1 [Example 247] |  |  | inhibition at 1 µM [1, 3]: 36%

Source: US8796244B2, “Imidazopyridine derivatives as inhibitors of receptor tyrosine kinases” (Astex Therapeutics Ltd, priority 2008, dated 2014)
